Laboratory results as given in ChEMBL document CHEMBL1138219 (J Med Chem, 2006).

Experiments:
Format in all cases: cell-based
[1] = Cytotoxicity against human SN12C cell line; conditions: SN12C cells
[2] = Cytotoxicity against human MDA-MB-435 cell line; conditions: MDA-MB-435 cells
[3] = Cytotoxicity against human HOP62 cell line; conditions: HOP-62 cells
[4] = Cytotoxicity against human OVCAR-3 cell line; conditions: OVCAR-3 cells
[5] = Cytotoxicity against human HCT116 cell line; conditions: HCT-116 cells
[6] = Cytotoxicity against human UACC62 cell line; conditions: UACC-62 cells
[7] = Cytotoxicity against human SF539 cell line; conditions: SF-539 cells
[8] = Cytotoxicity against human DU145 cell line; conditions: DU-145 cells

`COc1cc2c(cc1OC)-c1c(c3ccc([N+](=O)[O-])cc3c(=O)n1CCCN)C2=O` showed a GI50 [1] of 0.851 µM, a GI50 [2] of 6.46 µM and a GI50 [3] of 1.55 µM. The GI50 [4] was 8.13 µM, the GI50 [5] was 0.589 µM and the GI50 [6] was 2.51 µM. For the same compound, the GI50 [7] was 0.005 µM and the GI50 [8] was 0.676 µM.
With `COc1cc2c(cc1OC)-c1c(c3ccc([N+](=O)[O-])cc3c(=O)n1CCCN=[N+]=[N-])C2=O` the GI50 [1] was 46.8 µM, the GI50 [2] was greater than 100 µM and the GI50 [3] was 29.5 µM. The GI50 [4] was greater than 100 µM, the GI50 [5] was 31.6 µM and the GI50 [6] was 51.3 µM. The GI50 [7] was 36.3 µM and the GI50 [8] was 87.1 µM.
`COc1cc2c(c(OC)c1OC)-c1c(c3ccc([N+](=O)[O-])cc3c(=O)n1CCCBr)C2=O` gave a GI50 [1] of 19.5 µM, a GI50 [2] greater than 100 µM and a GI50 [3] of 15.8 µM. The GI50 [4] was greater than 100 µM, the GI50 [5] was 18.6 µM and the GI50 [6] was 30 µM. It also gave a GI50 [7] of 4.47 µM.
For `COc1cc2c(cc1OC)-c1c(c3ccc([N+](=O)[O-])cc3c(=O)n1CCCBr)C2=O`, the GI50 [1] was 4.27 µM, the GI50 [2] was 25.1 µM and the GI50 [3] was 20.9 µM. It also gave a GI50 [4] of 70.8 µM, a GI50 [5] of 4.27 µM and a GI50 [6] of 2.82 µM. The GI50 [7] was 10.5 µM and the GI50 [8] was 24.5 µM.
Compound `COc1cc2c(c(OC)c1OC)C(=O)[C@@H]1c3ccc([N+](=O)[O-])cc3C(=O)N(CCCBr)[C@H]21` (relative stereo) has a GI50 [1] of 0.257 µM, a GI50 [2] of less than 0.01 µM and a GI50 [3] of less than 0.01 µM. It also gave a GI50 [4] of less than 0.01 µM, a GI50 [5] of less than 0.01 µM and a GI50 [6] of less than 0.01 µM. It also gave a GI50 [7] of 0.468 µM and a GI50 [8] of 1.02 µM.
Work on `COc1ccc2c(c1)C(=O)c1c-2n(CCCCl)c(=O)c2cc([N+](=O)[O-])ccc12` yielded a GI50 [1] of less than 0.01 µM, a GI50 [2] of 3.24 µM and a GI50 [3] of 0.295 µM. The GI50 [4] was 3.39 µM, the GI50 [5] was 0.794 µM and the GI50 [6] was less than 0.01 µM. The GI50 [7] was 0.027 µM and the GI50 [8] was 0.036 µM.
Work on `COc1ccc2c(c1OC)-c1c(c3ccc([N+](=O)[O-])cc3c(=O)n1CCCBr)C2=O` yielded a GI50 [1] of 36.3 µM, a GI50 [3] of 21.9 µM and a GI50 [4] greater than 100 µM. The GI50 [5] was 19.1 µM and the GI50 [6] was 18.2 µM.
In the case of `NCCCn1c2c(c3ccc([N+](=O)[O-])cc3c1=O)C(=O)c1cc3c(cc1-2)OCO3`, the GI50 [1] is reported as less than 0.01 µM, the GI50 [2] is reported as 0.025 µM and the GI50 [3] is reported as less than 0.01 µM. The GI50 [4] was 0.302 µM, the GI50 [5] was less than 0.01 µM and the GI50 [6] was 0.017 µM. For the same compound, the GI50 [7] was less than 0.01 µM and the GI50 [8] was less than 0.01 µM.
`COc1cccc2c1-c1c(c3ccc([N+](=O)[O-])cc3c(=O)n1CCCCl)C2=O` gave a GI50 [1] of 15.8 µM, a GI50 [2] of 50.1 µM and a GI50 [3] of 5.5 µM. The GI50 [4] was 50.1 µM, the GI50 [5] was 2.45 µM and the GI50 [6] was 2.4 µM.
`COc1cc2c(c(OC)c1OC)-c1c(c3ccc([N+](=O)[O-])cc3c(=O)n1CCCN=[N+]=[N-])C2=O` showed a GI50 [1] of 30.2 µM, a GI50 [2] greater than 100 µM and a GI50 [3] of 15.5 µM. The GI50 [4] was 45.7 µM, the GI50 [5] was 14.1 µM and the GI50 [6] was 32.4 µM. For the same compound, the GI50 [7] was 13.5 µM and the GI50 [8] was 70.8 µM.
Compound `COc1ccc2c(c1OC)-c1c(c3ccc([N+](=O)[O-])cc3c(=O)n1CCCN=[N+]=[N-])C2=O` has a GI50 [1] of 11.5 µM, a GI50 [2] of 72.4 µM and a GI50 [3] of 5.01 µM. The GI50 [4] was 56.2 µM, the GI50 [5] was 2.95 µM and the GI50 [6] was 4.57 µM. The GI50 [7] was 5.24 µM and the GI50 [8] was 4.9 µM.
With `COc1cc2c(c(OC)c1OC)C(=O)c1c-2n(CCCN=[N+]=[N-])c(=O)c2cc([N+](=O)[O-])ccc12` the GI50 [1] was greater than 100 µM, the GI50 [2] was greater than 100 µM and the GI50 [3] was 30.9 µM. It also gave a GI50 [4] greater than 100 µM, a GI50 [5] of 36.3 µM and a GI50 [6] of 39.8 µM. It also gave a GI50 [7] of 38.9 µM and a GI50 [8] greater than 100 µM.
Work on `COc1cc2c(c(OC)c1OC)-c1c(c3ccc([N+](=O)[O-])cc3c(=O)n1CCCN)C2=O` yielded a GI50 [1] of 3.98 µM, a GI50 [2] of 0.871 µM and a GI50 [3] of 0.933 µM. For the same compound, the GI50 [4] was 10.7 µM, the GI50 [5] was 0.832 µM and the GI50 [6] was 9.12 µM. It also gave a GI50 [7] of 1.38 µM and a GI50 [8] of 7.24 µM.
Compound `COc1cc2c(c(OC)c1OC)C(=O)c1c-2n(CCCN)c(=O)c2cc([N+](=O)[O-])ccc12` has a GI50 [1] of 2.09 µM, a GI50 [2] of 1.07 µM and a GI50 [3] of 0.676 µM. The GI50 [4] was 1.05 µM, the GI50 [5] was 0.138 µM and the GI50 [6] was 6.61 µM. It also gave a GI50 [7] of 1.35 µM and a GI50 [8] of 1.15 µM.
Work on `COc1ccc2c(c1)C(=O)c1c-2n(CCCN=[N+]=[N-])c(=O)c2cc([N+](=O)[O-])ccc12` yielded a GI50 [2] of 0.251 µM, a GI50 [3] of less than 0.001 µM and a GI50 [4] of 0.155 µM. For the same compound, the GI50 [5] was less than 0.001 µM, the GI50 [7] was less than 0.001 µM and the GI50 [8] was less than 0.001 µM.
With `COc1ccc2c(c1OC)-c1c(c3ccc([N+](=O)[O-])cc3c(=O)n1CCCN)C2=O` the GI50 [1] was 0.977 µM, the GI50 [2] was 9.12 µM and the GI50 [3] was 8.32 µM. It also gave a GI50 [4] of 14.1 µM, a GI50 [5] of 1.51 µM and a GI50 [6] of 1.1 µM. It also gave a GI50 [7] of 1.35 µM and a GI50 [8] of 0.832 µM.
`COc1ccc2c(c1)C(=O)c1c-2n(CCCN)c(=O)c2cc([N+](=O)[O-])ccc12` showed a GI50 [1] of less than 0.01 µM, a GI50 [3] of less than 0.01 µM and a GI50 [5] of less than 0.01 µM. For the same compound, the GI50 [6] was less than 0.01 µM and the GI50 [7] was less than 0.01 µM.
Work on `COc1cc2c(cc1OC)[C@@H]1[C@H](C2=O)c2ccc([N+](=O)[O-])cc2C(=O)N1CCCBr` (relative stereo) yielded a GI50 [1] of 7.59 µM, a GI50 [2] of 2.82 µM and a GI50 [3] of 13.8 µM. The GI50 [4] was 2.04 µM, the GI50 [5] was 4.57 µM and the GI50 [6] was greater than 100 µM. For the same compound, the GI50 [7] was 11.7 µM and the GI50 [8] was 14.5 µM.
